Results: ChEMBL document CHEMBL1137714, “Primaquine revisited six decades after its discovery” (Eur J Med Chem, 2009)

Tests used:
[1] = target: Acetylcholinesterase (Homo sapiens) (UniProt P22303); test: Inhibition of human erythrocyte AChE
Homo sapiens = species: Homo sapiens; test: Toxicity in human assessed as incidence of abdominal cramps at 22.5 to 30 mg/day; type: organism-based, Abdomen; settings: in vivo
[2] = Tmax in po dosed human; type: ADME, organism-based; settings: in vivo

Sequence of Acetylcholinesterase (Homo sapiens) (P22303 whole entry): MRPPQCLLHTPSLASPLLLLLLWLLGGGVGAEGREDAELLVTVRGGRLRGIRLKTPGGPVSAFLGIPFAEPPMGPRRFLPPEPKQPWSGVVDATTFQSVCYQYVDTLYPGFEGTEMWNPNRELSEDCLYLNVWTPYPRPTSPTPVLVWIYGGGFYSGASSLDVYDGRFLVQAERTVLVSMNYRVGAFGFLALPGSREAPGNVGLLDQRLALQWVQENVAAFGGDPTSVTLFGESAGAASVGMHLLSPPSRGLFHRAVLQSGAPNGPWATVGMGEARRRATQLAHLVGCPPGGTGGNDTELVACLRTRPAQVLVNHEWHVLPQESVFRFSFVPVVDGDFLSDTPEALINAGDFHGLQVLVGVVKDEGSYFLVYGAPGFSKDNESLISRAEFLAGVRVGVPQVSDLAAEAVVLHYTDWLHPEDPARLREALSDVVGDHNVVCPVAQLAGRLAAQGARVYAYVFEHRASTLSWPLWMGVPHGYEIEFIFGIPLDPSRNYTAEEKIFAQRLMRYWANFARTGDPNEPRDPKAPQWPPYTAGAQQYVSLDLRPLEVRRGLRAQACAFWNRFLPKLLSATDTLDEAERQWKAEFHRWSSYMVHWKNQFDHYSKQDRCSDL

Structure (SMILES): COc1cc(NC(C)CCCN)c2ncccc2c1 (stereo not drawn) [PRIMAQUINE]
- IC33 [1]: 30 µM
- Activity (Homo sapiens): 10%
- Tmax [2]: 12 h
